Counter-ions that a name gives are not always drawn.
How the values were obtained:
3T3-GFP cells = assay: Scratch wound closure assay, 3T3-GFP; type: cell-based; conditions: wound closure after 24 h, 10% FCS, tested 3.125 μM to 100 μM
From the text: Using this assay, we screened the academic library of the University of Grenoble, which is composed of 1360 original molecules. Setting the threshold of significant responses at 75% of the maximal inhibition, we identified 80 inhibitory molecules. At this stage, we reasoned that molecules that would affect the cytoskeleton dynamics or the adhesion properties of any cell type would be positive in this assay but would not represent good candidates for further development. We thus decided to perform a secondary counterscreen of the first 80 selected compounds on GFP-expressing 3T3 fibroblasts (3T3-GFP) using the same scratch assay. We then focused our interest on the 5 molecules that inhibited more strongly HMEC-GFP than 3T3-GFP wound healing. […] We synthesized a series of 30 analogs and tested them at various concentrations both on HMEC-GFP and 3T3-GFP cells. […] Dansyl and naphthalimide aromatic groups, found in COB223 and COB227 respectively, appeared very efficient. The presence of the diaminomethyl group on dansyl is critical for the activity of COB223 as shown by the lower efficiency of COB235 (IC50 is 8 times higher than that of COB223). COB223 and COB227 contain a tert-butyloxycarbonyl function (BOC group) as a second hydrophobic group. Replacement of BOC by an amino group decreased the efficiency and the specificity (compare 05-102-L-B09 vs 05-06-L-D03, or COB227 vs COB228).
(§1) Confluent cell monolayers were wounded with a plastic pipet tip, washed gently with phosphate buffer saline (PBS) and treated with complete media containing molecules, as indicated. Cells were placed at 37°C into the incubator and photographed at indicated times. Quantitation of closure of the monolayer was performed using the NIH Image J program (http://rsbweb.nih.gov/ij/). Results are expressed as percentage of wound closure at t = 24 h as compared to the initial wound at t = 0 h.

HMEC-GFP cells = assay: Scratch wound closure assay, HMEC-GFP; type: cell-based, human; conditions: for IC50: wound closure after 24 h, 10% FCS, tested 3.125 μM to 100 μM; for activity on HMEC-GFP wound closure: structure-activity relationship analysis
From the text: In order to adapt the endothelial scratch wounding assay to the constraints of high throughput screening, we decided to use an endothelial cell line rather than primary cultures for the sake of reproducibility. Since angiogenesis is triggered by capillary endothelial cells, we selected the HMEC-1 cell line which consists of human dermal microvascular endothelial cells stably expressing SV40 […] antigen. We infected this cell line with GFP-encoding retroviral particles and selected one clone (thereafter named HMEC-GFP) that presented a high level of fluorescence and a strong proliferation rate (doubling time in the presence of serum: 22 h). We controlled that GFP expression was stable over at least 50 passages and that these cells still expressed endothelial markers such as VE-cadherin and CD31. In a standard assay, HMEC-GFP cells were grown until confluence in 96-well plates in the presence of serum, scratched with the multi-tip dispenser of the HTS automat, gently rinsed twice to eliminate detached cells and cell debris that could liberate inflammatory and potentially angiogenic cytokines, and incubated for 24 h in the presence of serum and the compounds to be tested. Each well was photographed at time 0 h (after wounding) and 24 h under a motorized epifluorescence microscope and the digitized images were analyzed using Image J to determine the percentage of wound closure (Figure 1A, 1B). Under our standard conditions, the closure rate was 72 ± 4% in the positive controls and 27 ± 4.% in the negative controls.
as §1

LLC/2 tumor = assay: Mouse LLC/2 tumor model; type: in vivo; conditions: mouse, in vivo
Method: We chose this model because of its rapid growth in syngenic mice and its strong dependence on angiogenesis. LLC/2 cells (10^6 in 50 μL medium) were subcutaneously injected into the right flank of […] mice. Seven days after tumor inoculation, mice were given an intraperitoneal (i.p.) injection of either solvent (1.7% DMSO) or COB223 every other day. Tumor size was measured with calipers, and the volume was calculated according to the formula (L*w^2)/2 where L and […] stand for length and width respectively. All mice were killed 21 days after tumor grafting.
Tumors collected after animal sacrifice were split into two parts and fixed either in 4% paraformaldehyde (v/v) or in formalin fixative for 24 h at 4°C and embedded in paraffin and then cut into 7 μm sections. Sections were stained using specific antibodies and the avidin–biotin immunoperoxidase detection method. Endogenous peroxidase activity was quenched by pretreatment with 3% (v/v) hydrogen peroxide in methanol for 20 min. For endothelial immunohistochemistry detection, CD31 antibody (MEC13.3, BD Pharmingen) was incubated for 2 h at room temperature. The tissue sections were subsequently washed three times with PBS and incubated with biotinylated rabbit anti-rat IgG (1:250 dilution in blocking solution; Sigma-Aldrich, Saint-Quentin Fallavier, France) for 1 h at room temperature. After three PBS washes, the slides were incubated with an avidin: biotin complex (Vectastain ABC kit; Vector Laboratories, Burlingame, CA) for 45 minutes. After a final PBS wash, the immunoreactive proteins were visualized after the addition of 3,3′-diaminobenzidine (Dako, Trappes, France) for 2 min and then counterstained with hematoxylin. Control sections were treated without primary antibody.

| Compound | IC50 (3T3-GFP cells) [µM] | IC50 (HMEC-GFP cells) [µM] | IC50 (HMEC-GFP cells; Homo sapiens) [µM] | activity on HMEC-GFP wound closure (HMEC-GFP cells) | effect on in vivo LLC/2 tumor growth (LLC/2 tumor) |
| --- | --- | --- | --- | --- | --- |
| 1,4-bis[3-(5-(Dimethylamino)naphthalene-1-sulfonamido)propylamino]piperazine [COB222] | > 50 | > 50 | – | – | – |
| CN(C)CCCNS(=O)(=O)c1cccc2c(N(C)C)cccc12 [COB221, 5-(Dimethylamino)-N-[3-(dimethylamino)propyl]naphthalene-1-sulfonamide] | 150 | – | 20 | – | – |
| CN(C)c1cccc2c(S(=O)(=O)NCCCCCN)cccc12 [dansylcadaverine, monodansylcadaverine, reference compound] | > 50 | – | > 50 | inactive | – |
| CC(C)(C)OC(=O)NCCCN1CCN(CCCNC(=O)c2ccccc2)CC1 [COB237, tert-Butyl 3-(4-(3-phenylamidopropyl)piperazin-1-yl)propylcarbamate] | > 50 | – | > 50 | – | – |
| NCCCCCCNS(=O)(=O)c1cccc2c(Cl)cccc12 [Compound W7, reference compound] | 35 | – | 35 | – | – |
| CC(C)(C)OC(=O)NCCCN1C(=O)c2cccc3cc([N+](=O)[O-])cc(c23)C1=O [COB282, N-(3-(tert-Butoxycarbonylamino)propyl)-3-nitro-1,8-naphthalimide] | – | – | > 100 | – | – |
| Cc1ccc(S(=O)(=O)NCCCN2CCN(CCCNC(=O)OC(C)(C)C)CC2)cc1 [COB236, tert-Butyl 3-(4-(3-(4-methylphenylsulfonamido)propyl)piperazin-1-yl) propylcarbamate] | > 50 | – | > 50 | – | – |
| CC(C)(C)OC(=O)NCCCN1CCN(CCCN2C(=O)c3cccc4cc([N+](=O)[O-])cc(c34)C2=O)CC1 [COB280, N-{3-[4-(3-tert-Butoxycarbonylaminopropyl)piperazin-1-yl]propyl}-3-nitro-1,8-naphthalimide] | > 100 | – | 25 | – | – |
| CN(C)c1cccc2c(S(=O)(=O)N3CCN(CCOCCO)CC3)cccc12 [COB224, 2-(2-{4-[5-(Dimethylamino)naphthalene-1-sulfonyl]piperazin-1-yl}ethoxy)ethan-1-ol] | > 50 | – | > 50 | – | – |
| CC(C)(C)OC(=O)NCCCN1CCN(CCCN2C(=O)c3cccc4cccc(c34)C2=O)CC1 [COB227, N-{3-[4-(3-tert-Butoxycarbonylaminopropyl)piperazin-1-yl]propyl}-1,8-naphthalimide] | 250 | – | 18 | – | no inhibition |
| CN(C)c1ccc2c3c(cccc13)C(=O)N(CCCN1CCN(CCCNC(=O)OC(C)(C)C)CC1)C2=O [COB274, N-{3-[4-(3-tert-Butoxycarbonylaminopropyl)piperazin-1-yl]propyl}-4-dimethylamino-1,8-naphthalimide] | – | – | > 100 | – | – |
| CN(C)c1cccc2c(S(=O)(=O)NCCOCCO)cccc12 [COB225, 2-{2-[5-(Dimethylamino)naphthalene-1-sulfonamido]ethoxy}ethan-1-ol] | > 50 | – | > 50 | – | – |
| CN(C)c1cccc2c(S(=O)(=O)NCCOCCOCCNC(=O)OC(C)(C)C)cccc12 [COB296, tert-Butyl N-(2-[2-{2-(5-(dimethylamino)naphthalene-1-sulfonamido)ethoxy}ethoxy]ethyl) carbamate] | – | – | 5 | – | – |
| NCCN [Ethylene diamine, 1,2-ethylenediamine, reference compound] | – | > 100 | – | inactive | – |
| N-(5-(Dimethylamino)naphthalene-1-sulfonamido)-1,3-diamino-propane [Compound 05-06-L-D03] | 200 | 25 | – | – | – |
| CN(C)c1cccc2c(S(=O)(=O)NCCCO)cccc12 [COB220, 5-(Dimethylamino)-N-[3-hydroxypropyl]naphthalene-1-sulfonamide] | > 50 | – | 40 | – | – |
| NCCCN1C(=O)c2cccc3cccc(c23)C1=O [COB226, N-(3-Aminopropyl)-1,8-naphthalimide hydrochloride] | > 50 | – | > 50 | – | – |
| O=C1c2cccc3cc([N+](=O)[O-])cc(c23)C(=O)N1CCCNCCCN1C(=O)c2cccc3cc([N+](=O)[O-])cc(c23)C1=O [COB278, Bis-[(3-nitro-1,8-naphthalimido)propyl]amine] | 25 | – | 12.5 | – | – |
| CC(C)(C)OC(=O)NCCCN1CCN(CCCNC(=O)OCc2ccc([N+](=O)[O-])cc2)CC1 [COB238, 4-Nitrobenzyl N-[3-(4-{3-[(tert-butoxycarbonyl)amino]propyl}piperazin-1-yl)propyl] carbamate] | > 50 | – | 20 | – | – |
| NCCCNCCCCNCCCN [spermine, reference compound] | – | – | – | inactive | – |
| NCCCN [1,3-diaminopropane, reference compound] | – | > 100 | – | inactive | – |
| CC(C)(C)OC(=O)NCCCN1C(=O)c2cccc3cccc(c23)C1=O [COB283, N-(3-(tert-Butoxycarbonylamino)propyl)-1,8-naphthalimide] | – | – | > 100 | – | – |
| CC(C)(C)OC(=O)NCCCNCCCN1C(=O)c2cccc3cc([N+](=O)[O-])cc(c23)C1=O [COB281, N-[3-((3-tert-Butoxycarbonylaminopropyl)amino)propyl]-3-nitro-1,8-naphthalimide] | > 50 | – | 25 | – | – |
| NCCCCN [putrescine, 1,4-diaminobutane, reference compound] | – | – | > 100 | inactive | – |
| NCCCN1C(=O)c2cccc3cc([N+](=O)[O-])cc(c23)C1=O [COB277, N-(3-Aminopropyl)-3-nitro-1,8-naphtalimide hydrochloride] | – | – | > 100 | – | – |
| NCCCN1CCN(CCCN2C(=O)c3cccc4cccc(c34)C2=O)CC1 [COB228, N-{3-[4-(3-Aminopropyl)piperazin-1-yl]propyl}-1,8-naphthalimide hydrochloride] | 40 | – | 25 | – | – |
| CN(C)c1ccc2c3c(cccc13)C(=O)N(CCCNCCCNC(=O)OC(C)(C)C)C2=O [COB275, N-[3-((3-tert-Butoxycarbonylaminopropyl)amino)propyl]-4-dimethylamino-1,8-naphthalimide] | 50 | – | 12.5 | – | – |
| CN(C)c1ccc2c3c(cccc13)C(=O)N(CCCNC(=O)OC(C)(C)C)C2=O [COB276, N-(3-(tert-Butoxycarbonylamino)propyl)-4-dimethylamino-1,8-naphthalimide] | – | – | > 100 | – | – |
| CC(C)(C)OC(=O)NCCCN1CCN(CCCNS(=O)(=O)c2cccc3ccccc23)CC1 [COB235, tert-Butyl 3-(4-(3-(naphthalene-1-sulfonamido)propyl)piperazin-1-yl) propylcarbamate] | > 50 | – | 40 | – | – |
| N-(5-(Dimethylamino)naphthalene-1-sulfonamido)-N'-(tert-butoxycarbonyl)-1,3-diamino-propane [Compound 05-102-B09] | 150 | 18 | – | – | – |

Reference: publication PMC4467156, “A new chemical inhibitor of angiogenesis and tumorigenesis that targets the VEGF signaling pathway upstream of Ras” (Oncotarget, 2015)
